# Patent US10968186B2, “Ascochlorin derivative and use thereof as AMPK activator” (priority 2016, dated 2021)
# Like-named read-outs stand apart in the source and are kept apart here.
# Experiments:
# [1] = Stability against mouse liver microsomes; type: in vitro ADME; settings: for Liver microsome stability remaining % after 60 min incubation with NADPH, mouse LM: 2 μM compound
# Method: (§1) Determination of Stability Against Mouse and Human Mirosomes
# (§2) Pooled human liver microsomes (Cat. 452161; Lot. 23418) were purchased from Corning and pooled male mouse liver microsomes (Cat. M1000; Lot. 1210302) were purchased from Xenotech. Microsomes were stored at −80° C. prior to use. 40 μL of ultra-pure H2O was used instead of NADPH solution in the negative control. The negative control was used to exclude the misleading factor that was resulted from instability of chemical itself. Samples with NADPH were prepared in duplicate. Negative controls were prepared in singlet.
# (§3) The reaction was started with the addition of 4 μL of 200 μM compound solution to each master solution to get the final concentration of 2 μM. Verapamil was used as positive control in the assay. Aliquots of 50 μL were taken from the reaction solution at 0, 15, 30, 45 and 60 min. The reaction was stopped by addition of 4 volumes of cold acetonitrile with IS (200 nM imipramine, 200 nM labetalol and 2 μM ketoprofen). Samples were centrifuged at 3,220 g for 40 minutes. Aliquot of […] of the supernatant was mixed with 90 μL of ultra-pure H2O and then was used for LC-MS/MS analysis. Results are shown in Table 3 by indicating remaining % of the test compound after 60 minutes incubation with liver microsomes from human and mouse in the presence of NADPH.
# [2] = Stability against human liver microsomes; type: in vitro ADME; settings: 2 μM compound
# Method: as §1, §2, §3
# [3] = Solubility in pH4.0 and pH7.4 phosphate buffer solution; type: physicochemical; settings: phosphate buffer (PBS), aqueous buffer, kinetic from dmso stock, 2 hr incubation, 25° C.
# Method: 1) Preparation of Stock Solutions
# Diclofenac was used as positive control in the assay.
# 2) Procedures for Solubility Determination
# This study was performed in duplicate. […] The filtered samples were diluted with methanol.
# 3) Samples Analyzed by LC-MS/MS
# BxPC-3 = assay: Anti-proliferative activity, CellTiterGlo assay, BxPC-3; type: cell-based; settings: Homo sapiens; BxPC-3, 96 hrs incubation; read-out: Antiproliferative activities IC50, BxPC-3
# Method: (§4) The anti-proliferative activities of the compounds against 6 human cancer cell lines were determined by CellTiterGlo assay kit. All cells were obtained from ATCC and cultured as recommended by the vendor. Cells were assayed in exponential growth phase. Sample solution was prepared by 3-fold serial dilution from 30 mM stock for 10 doses in DMSO. Antiproliferative activities were measured by CellTiterGlo assay kit according to the protocol after cells were incubated for 96 hrs in a 37° C., 5% CO2 incubator.
# (§5) On the 4th day of incubation, i) 15 μl reagent (CelltiterGlo assay kit) was added per well and plate was shaken (avoiding light) for 2 mins on a plate shaker, ii) the plate was kept (avoiding light) in room temperature for 30 min, and iii) the luminescence value was recorded by Multiplate reader.
# LNCaP = assay: Anti-proliferative activity, CellTiterGlo assay, LNCaP; type: cell-based; settings: Homo sapiens, 96 hrs incubation, read-out: Antiproliferative activities IC50, LNCaP
# Method: as §4, §5
# MDA-MB-231 = assay: Anti-proliferative activity, CellTiterGlo assay, MDA-MB-231; type: cell-based; settings: Homo sapiens; MDA-MB-231, 96 hrs incubation; read-out: Antiproliferative activities IC50, MDA-MB-231
# Method: as §4, §5
# U87-MG = assay: Anti-proliferative activity, CellTiterGlo assay, U87-MG; type: cell-based; settings: Homo sapiens, U-87 MG, 96 hrs incubation, read-out: Antiproliferative activities IC50, U87-MG
# Method: as §4, §5
# HT29 = assay: Anti-proliferative activity, CellTiterGlo assay, HT29; type: cell-based; settings: Homo sapiens, HT-29; HT29, 96 hrs incubation; read-out: Antiproliferative activities IC50, HT29
# Method: as §4, §5
# A549 = assay: Anti-proliferative activity, CellTiterGlo assay, A549; type: cell-based; settings: Homo sapiens; A549, 96 hrs incubation; read-out: Antiproliferative activities IC50, A549
# Method: as §4, §5
# [4] = pH 4.0 phosphate buffer solution, read-out: Solubility, pH 4.0 PBS
# [5] = pH 7.4 phosphate buffer solution, read-out: Solubility, pH 7.4 PBS
Structure (SMILES),"Liver microsome stability remaining % after 60 min incubation with NADPH, mouse LM [1] [%]","Liver microsome stability remaining % after 60 min incubation with NADPH, human LM [2] [%]",further results
"CC(/C=C/[C@@]1(C)[C@H](C)CC/C(=N\OCC(=O)O)[C@@H]1C)=C\Cc1c(O)c(C=O)c(C)c(Cl)c1OCF [Compound 26, 2-([[(1E,2R,3R,4R)-3-[(1E,3E)-5-[3-chloro-2-(fluoromethoxy)-5-formyl-6-hydroxy-4-methylphenyl]-3-methylpenta-1,3-dien-1-yl]-2,3,4-trimethylcyclohexylidene]amino]oxy)acetic Acid]",–,–,"solubility at 2 h [3, 4]: 192 µM; solubility at 2 h [3, 5]: 12.3 µM"
"CO/N=C/c1c(C)c(Cl)c(OC)c(C/C=C(C)/C=C/[C@@]2(C)[C@H](C)CC/C(=N\OCCN3CCOCC3)[C@@H]2C)c1O [Compound 16, 4-chloro-3-methoxy-6-[(1E)-(methoxyimino)methyl]-5-methyl-2-[(2E,4E)-3-methyl-5-[(1R,2R,3E,6R)-1,2,6-trimethyl-3-[[2-(morpholin-4-yl)ethoxy]imino]cyclohexyl]penta-2,4-dien-1-yl]phenol]",76,56,–
"CO/N=C/c1c(C)c(Cl)c(OC)c(C/C=C(C)/C=C/[C@@]2(C)[C@H](C)CCC(NC3COC3)[C@@H]2C)c1O (stereo partly drawn) [Compound 25, 4-chloro-3-methoxy-6-[(1E)-(methoxyimino)methyl]-5-methyl-2-[(2E,4E)-3-methyl-5-[(1R,2R,6R)-1,2,6-trimethyl-3-[(oxetan-3-yl)amino]cyclohexyl]penta-2,4-dien-1-yl]phenol]",39,66,–
"CCOC(=O)CO/N=C1\CC[C@@H](C)[C@](C)(/C=C/C(C)=C/Cc2c(O)c(/C=N/OC)c(C)c(Cl)c2OC)[C@H]1C [Compound 18, ethyl 2-([[(1E,2R,3R,4R)-3-[(1E,3E)-5-[3-chloro-6-hydroxy-2-methoxy-5-[(1E)-(methoxyimino)methyl]-4-methylphenyl]-3-methylpenta-1,3-dien-1-yl]-2,3,4-trimethylcyclohexylidene]amino]oxy)acetate]",59,86,–
"CO/N=C/c1c(C)c(Cl)c(OCF)c(C/C=C(C)/C=C/[C@@]2(C)[C@H](C)CC/C(=N\OC)[C@@H]2C)c1O [Compound 9, 4-chloro-3-(fluoromethoxy)-2-[(2E,4E)-5-[(1R,2R,3E,6R)-3-(methoxyimino)-1,2,6-trimethylcyclohexyl]-3-methylpenta-2,4-dien-1-yl]-6-[(1E)-(methoxyimino)methyl]-5-methylphenol]",83,100,–
"COc1c(Cl)c(C)c(C=O)c(O)c1C/C=C(C)/C=C/[C@@]1(C)[C@H](C)CCC(=O)[C@@H]1C [MAC, 3-chloro-6-hydroxy-4-methoxy-2-methyl-5-[(2E,4E)-3-methyl-5-[(1R,2R,6R)-1,2,6-trimethyl-3-oxocyclohexyl]penta-2,4-dien-1-yl]benzaldehyde, reference compound]",6,2,"metabolic stability: % remained after 1 hr incubation ([1]; liver microsomes of human and mouse in the presence of NADPH, 1 hr): 6%; solubility at 2 h [3, 4]: < 0.08 µM; solubility at 2 h [3, 5]: 0.07 µM"
"CO/N=C/c1c(C)c(Cl)c(OC)c(C/C=C(C)/C=C/[C@@]2(C)[C@H](C)CCC(C)(O)[C@@H]2C)c1O (stereo partly drawn) [Compound 14, (E)-3-chloro-6-hydroxy-5-((2E,4E)-5-((1R,2R,6R)-3-hydroxy-1,2,3,6-tetramethylcyclohexyl)-3-methylpenta-2,4-dien-1-yl)-4-methoxy-2-methylbenzaldehyde O-methyl oxime]",88,99,–
"CO/N=C/c1c(C)c(Cl)c(OC)c(C/C=C(C)/C=C/[C@@]2(C)[C@H](C)CCC(NC3CC3)[C@@H]2C)c1O (stereo partly drawn) [Compound 23, 4-chloro-2-[(2E,4E)-5-[(1R,2R,6R)-3-(cyclopropylamino)-1,2,6-trimethylcyclohexyl]-3-methylpenta-2,4-dien-1-yl]-3-methoxy-6-[(1E)-(methoxyimino)methyl]-5-methylphenol]",98,74,–
"CC(/C=C/[C@@]1(C)[C@H](C)CC/C(=N\OCCN2CCOCC2)[C@@H]1C)=C\Cc1c(O)c(C=O)c(C)c(Cl)c1OCF [Compound 12, 3-chloro-4-(fluoromethoxy)-6-hydroxy-2-methyl-5-[(2E,4E)-3-methyl-5-[(1R,2R,3E,6R)-1,2,6-trimethyl-3-[[2-(morpholin-4-yl)ethoxy]imino]cyclohexyl]penta-2,4-dien-1-yl]benzaldehyde]",–,–,IC50 (BxPC-3): 2.3 µM; IC50 (LNCaP): 0.9 µM; IC50 (MDA-MB-231): 5.8 µM; IC50 (U87-MG): 3.6 µM; IC50 (HT29): 2.8 µM; IC50 (A549): 2.9 µM

# Further lines, with some results ahead:
"Liver microsome stability remaining % after 60 min incubation with NADPH, mouse LM [1] [%]","Liver microsome stability remaining % after 60 min incubation with NADPH, human LM [2] [%]",Structure (SMILES),further results
56,81,"CO/N=C/c1c(C)c(Cl)c(OCF)c(C/C=C(C)/C=C/[C@@]2(C)[C@H](C)CC/C(=N\O)[C@@H]2C)c1O [Compound 11, 4-chloro-3-(fluoromethoxy)-2-[(2E,4E)-5-[(1R,2R,3E,6R)-3-(hydroxyimino)-1,2,6-trimethylcyclohexyl]-3-methylpenta-2,4-dien-1-yl]-6-[(1E)-(methoxyimino)methyl]-5-methylphenol]",–
58,74,"COc1c(Cl)c(C)c(/C=N/O)c(O)c1C/C=C(C)/C=C/[C@@]1(C)[C@H](C)CC/C(=N\O)[C@@H]1C [Compound 3, 4-chloro-2-[(2E,4E)-5-[(1R,2R,3E,6R)-3-(hydroxyimino)-1,2,6-trimethylcyclohexyl]-3-methylpenta-2,4-dien-1-yl]-6-[(1E)-(hydroxyimino)methyl]-3-methoxy-5-methylphenol]",–
89,100,"CO/N=C/c1c(C)c(Cl)c(OC)c(C/C=C(C)/C=C/[C@@]2(C)[C@H](C)CC/C(=N\OC)[C@@H]2C)c1O [Compound 8, 4-chloro-3-methoxy-2-[(2E,4E)-5-[(1R,2R,3E,6R)-3-(methoxyimino)-1,2,6-trimethylcyclohexyl]-3-methylpenta-2,4-dien-1-yl]-6-[(1E)-(methoxyimino)methyl]-5-methylphenol]",–
63,83,"CO/N=C/c1c(C)c(Cl)c(OC)c(C/C=C(C)/C=C/[C@@]2(C)[C@H](C)CC/C(=N\O)[C@@H]2C)c1O [Compound 10, 4-chloro-2-[(2E,4E)-5-[(1R,2R,3E,6R)-3-(hydroxyimino)-1,2,6-trimethylcyclohexyl]-3-methylpenta-2,4-dien-1-yl]-3-methoxy-6-[(1E)-(methoxyimino)methyl]-5-methylphenol]",–
97,99,"CC(/C=C/[C@@]1(C)[C@H](C)CC/C(=N\OCC(=O)O)[C@@H]1C)=C\Cc1c(O)c(/C=N/O)c(C)c(Cl)c1OCF [Compound 27, 2-([[(1E,2R,3R,4R)-3-[(1E,3E)-5-[3-chloro-2-(fluoromethoxy)-6-hydroxy-5-[(1E)-(hydroxyimino)methyl]-4-methylphenyl]-3-methylpenta-1,3-dien-1-yl]-2,3,4-trimethylcyclohexylidene]amino]oxy)acetic Acid]","solubility at 2 h [3, 4]: 165 µM; solubility at 2 h [3, 5]: 315 µM"
